In PMC7300003, “Alternative catalytic residues in the active site of Esco acetyltransferases” (Scientific Reports, 2020):

Tests used:
HsESCO1 = molecular target: T1, HsESCO1 (Homo sapiens, UniProt Q5FWF5); experiment: SMC3 acetylation time course, anti-acetyl-Smc3 immunoblot; format: biochemical; details: 10 µM AcCoA; acceptor human trimeric or tetrameric cohesin (SMC3 K105/K106); ATP, plasmid DNA, 1 mM MgCl2, pH 7.5, 37 °C
T1 construct: gene ESCO1; full-length, N-terminal His-tag, Sf9 insect cells
T1 sequence (Q5FWF5 1-840): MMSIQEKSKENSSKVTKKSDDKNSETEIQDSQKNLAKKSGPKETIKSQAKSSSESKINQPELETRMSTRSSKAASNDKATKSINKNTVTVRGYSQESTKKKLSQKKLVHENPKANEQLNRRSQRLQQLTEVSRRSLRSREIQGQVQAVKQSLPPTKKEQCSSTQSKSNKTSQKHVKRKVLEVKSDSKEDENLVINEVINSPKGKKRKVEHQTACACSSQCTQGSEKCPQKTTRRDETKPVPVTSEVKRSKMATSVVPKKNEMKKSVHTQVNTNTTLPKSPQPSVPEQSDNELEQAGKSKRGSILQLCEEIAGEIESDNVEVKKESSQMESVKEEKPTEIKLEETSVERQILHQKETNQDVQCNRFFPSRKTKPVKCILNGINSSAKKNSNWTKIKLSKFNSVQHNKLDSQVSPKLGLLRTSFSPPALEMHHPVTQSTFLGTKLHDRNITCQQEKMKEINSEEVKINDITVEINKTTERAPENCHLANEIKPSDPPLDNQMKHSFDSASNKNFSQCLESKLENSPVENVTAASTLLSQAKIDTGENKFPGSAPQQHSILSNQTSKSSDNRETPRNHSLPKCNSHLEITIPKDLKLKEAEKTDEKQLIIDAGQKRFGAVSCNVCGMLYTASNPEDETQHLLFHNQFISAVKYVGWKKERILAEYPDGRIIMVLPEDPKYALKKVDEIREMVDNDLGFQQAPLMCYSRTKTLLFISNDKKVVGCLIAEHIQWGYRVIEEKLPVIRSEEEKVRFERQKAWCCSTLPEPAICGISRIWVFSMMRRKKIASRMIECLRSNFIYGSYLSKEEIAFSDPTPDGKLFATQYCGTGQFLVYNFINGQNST

MmEsco2^368–592 = molecular target: T2, MmEsco2^368–592 (Mus musculus, UniProt Q8CIB9); experiment: X-ray crystallography, […] Å (zinc SAD); format: binding; details: natively bound (co-purified) CoA; active-site groove; pH 8 crystallisation
T2 construct: gene Esco2; residues 368-592 (C2H2 zinc finger and acetyltransferase domain), C-terminal His-tag, Hi5 insect cells
T2 sequence (Q8CIB9 368-592): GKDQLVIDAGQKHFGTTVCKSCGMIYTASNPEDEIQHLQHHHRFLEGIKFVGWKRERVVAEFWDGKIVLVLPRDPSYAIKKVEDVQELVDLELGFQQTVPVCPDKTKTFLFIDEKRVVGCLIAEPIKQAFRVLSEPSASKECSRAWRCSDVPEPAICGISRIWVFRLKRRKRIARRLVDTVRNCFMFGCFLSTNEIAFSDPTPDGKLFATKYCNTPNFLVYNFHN

Row | SMILES | SMC3 acetylation time course, anti-acetyl-Smc3 immunoblot (HsESCO1) | X-ray crystallography, 1.8 Å (zinc SAD) (MmEsco2^368–592)
1 | CC(=O)SCCNC(=O)CCNC(=O)[C@H](O)C(C)(C)COP(=O)(O)OP(=O)(O)OC[C@H]1O[C@@H](n2cnc3c(N)ncnc32)[C@H](O)[C@@H]1OP(=O)(O)O [AcCoA] | The purified tetrameric cohesin complex was incubated with HsESCO1 and AcCoA | 
2 | CC(C)(COP(=O)(O)OP(=O)(O)OC[C@H]1O[C@@H](n2cnc3c(N)ncnc32)[C@H](O)[C@@H]1OP(=O)(O)O)[C@@H](O)C(=O)NCCC(=O)NCCS [CoA] |  | The CoA cofactor is natively present in a complex with MmEsco2 in a groove
